Assay results: patent US12480151B2, “DNA preservation in biological specimens using metal chelators” (Northeastern University, priority 2020, dated 2025)

Assays:
[1] = test system: high molecular weight DNA in gill tissue of Mytilus edulis; experiment: Preservation of high molecular weight DNA in stored tissue, TapeStation % R and nY; settings: M. edulis, 3 months, room temperature
Description: (§1) To evaluate the contributions of the three components of DESS to DNA preservation in tissues, DNA quality was compared among extracts of tissues from three aquatic invertebrate taxa preserved for various time intervals in DESS or one of six DESS-variant solutions in a full factorial design. Each of these six variants contained either one of the three components of DESS individually or one of the three possible pairwise combinations of two DESS components. […] All solutions were prepared at room temperature (22-24° C.) using distilled deionized water as the diluent.
(§2) Live specimens of M. edulis and F. virilis were stored on ice and live A. virens were stored at 4° C. prior to dissection. Gill, abdominal muscle and body tissue samples were collected immediately after euthanasia from specimens of M. edulis, F. virilis, and A. virens, respectively. […] DNA was extracted from the ninth subsample, hereafter referred to as fresh tissue, immediately after dissection without preservation. […] Seven specimens of M. edulis, seven specimens of F. virilis and ten specimens of A. virens were assigned to each time interval for a total of 35 M. edulis, 35 F. virilis and 50 A. virens.
(§3) After the assigned storage interval, each tissue sample was removed from its storage solution and reweighed. […] To control for changes in tissue weight during storage, a correction ratio was calculated by dividing the tissue weight prior to storage by the post storage weight. Each extract subsample weight was then multiplied by the correction ratio to estimate the fresh tissue weight equivalent for that subsample. These values were then used to calculate normalized yield (see statistical analysis). DNA was extracted from tissues using the DNeasy Blood and Tissue Kit (Qiagen; Hilden, Germany) following the manufacturers recommended protocol with tissues digested overnight and DNA eluted by adding two sequential 50 μl volumes of Buffer AE for a total elution volume of 100 μl. […]

[2] = test system: high molecular weight DNA in body tissue of Alitta virens; experiment: as above; settings: A. virens, 3 months, room temperature
Description: as §1, §2, §3

[3] = test system: high molecular weight DNA in tissues of Alitta virens; experiment: pH study: tissue stored 1 year in EDTA solutions at pH 8.0, 9.0, 10.0; settings: A. virens, one year of storage, room temperature
From the text: The tissues of 5 species of aquatic animals were stored in the resulting solutions at room temperature for periods ranging from 6 weeks to 12 months.

[4] = test system: high molecular weight DNA in tissues of Mytilus edulis, Faxonius virilis and Alitta virens; experiment: Preservation of high molecular weight DNA in stored tissue, TapeStation % R and nY, statements covering several taxa; settings: M. edulis and F. virilis, 3 months
Description: as §1
Live specimens of M. edulis and F. virilis were stored on ice and live A. virens were stored at 4° C. prior to dissection. Gill, abdominal muscle and body tissue samples were collected immediately after euthanasia from specimens of M. edulis, F. virilis, and A. virens, respectively. […] DNA was extracted from the ninth subsample, hereafter referred to as fresh tissue, immediately after dissection without preservation. […]
After the assigned storage interval, each tissue sample was removed from its storage solution and reweighed. […] To control for changes in tissue weight during storage, a correction ratio was calculated by dividing the tissue weight prior to storage by the post storage weight. […]

[5] = test system: high molecular weight DNA in tissues of Mytilus edulis, Faxonius virilis and Alitta virens; experiment: Qualitative DNA fragment length distribution by agarose gel electrophoresis, several taxa; settings: M. edulis and F. virilis, 6 months, room temperature
Description: as §2

[6] = test system: rat; settings: oral; cited from earlier work

| SMILES | percent high molecular weight DNA recovered (% R), average [1] | normalized high molecular weight DNA yield (nY) [2] | percent high molecular weight DNA recovered (% R) [2] | high molecular weight DNA yielded [3] | normalized high molecular weight DNA yield (nY) [4] | percent high molecular weight DNA recovered (% R) [4] | high molecular weight DNA visualized by agarose gel electrophoresis [5] | LD50 [6] |
| --- | --- | --- | --- | --- | --- | --- | --- | --- |
| CCO [EtOH, ethanol] | 15.37% | performed significantly better than tissues preserved in DE, DSS, D and E | performed significantly better than tissues preserved in DE, DSS, D and E | little or no high molecular weight DNA | equal to or significantly greater than fresh tissues | equal to or significantly greater than fresh tissues | evident |  |
| [Cl-].[Na+] [NaCl, sodium chloride] |  |  |  |  |  |  |  | 3,000 mg/kg |
